These results are taken from patent US12264158B2, “Protein kinase MKK4 inhibitors for promoting liver regeneration or reducing or preventing hepatocyte death” (HEPAREGENIX GMBH, priority 2018, dated 2025).

What all share (conditions): concentration of 100 nM
One assay addresses T1, MKK4 (Homo sapiens, UniProt P45985).
T1 construct: S84/D399; host or cells: HEK-293
T1 sequence (P45985 84-399): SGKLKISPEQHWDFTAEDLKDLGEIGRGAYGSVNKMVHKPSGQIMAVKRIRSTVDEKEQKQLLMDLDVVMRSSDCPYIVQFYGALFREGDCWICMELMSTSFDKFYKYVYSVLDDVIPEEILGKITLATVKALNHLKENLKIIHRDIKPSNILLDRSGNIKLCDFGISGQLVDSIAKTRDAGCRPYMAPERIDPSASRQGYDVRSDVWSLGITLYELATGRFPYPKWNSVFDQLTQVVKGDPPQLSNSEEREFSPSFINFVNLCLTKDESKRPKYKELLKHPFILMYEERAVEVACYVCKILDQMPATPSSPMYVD
As to the kind of experiment: KINOMEscan competition binding assay, MKK4 potency. As for the experimental part:
(§1) The assay was performed by combining three components: DNA-tagged kinase; immobilized ligand; and a test compound. The ability of the test compound to compete with the immobilized ligand was measured via quantitative PCR of the DNA tag. The technology is described in detail in Fabian, M. A. et al. A small molecule-kinase interaction map for clinical kinase inhibitors. Nat. […] M. W. et al. A quantitative analysis of kinase inhibitor selectivity, Nat.
(§2) For investigation of the affinity to MKK4, MKK7 and JNK1, the kinases were produced in HEK-293 cells and subsequently tagged with DNA for qPCR detection. […] The liganded beads were blocked with excess biotin and washed with blocking buffer (SEABLOCK™ (Pierce), 1% BSA, 0.05% TWEEN®20, 1 mM DTT) to remove unbound ligand and to reduce nonspecific binding. […] All reactions were performed in polystyrene 96-well plates in a final volume of 0.135 mL. […] The kinase concentration in the eluates was measured by qPCR.
(§3) The test compounds were provided as 10 mM stock solutions. The test solutions at indicated final concentrations were prepared at DiscoverX.

The target of a further assay is T2, JNK1 (Homo sapiens, UniProt P45983).
T2 construct: M1/Q384; host or cells: HEK-293
Nature of the assay: KINOMEscan competition binding assay, selectivity against off-target JNK1. The protocol:
as §1, §2, §3

The target of another assay is T3, MKK7 (Homo sapiens, UniProt O14733).
T3 construct: M1/R419; host or cells: HEK-293
T3 sequence (O14733 1-419): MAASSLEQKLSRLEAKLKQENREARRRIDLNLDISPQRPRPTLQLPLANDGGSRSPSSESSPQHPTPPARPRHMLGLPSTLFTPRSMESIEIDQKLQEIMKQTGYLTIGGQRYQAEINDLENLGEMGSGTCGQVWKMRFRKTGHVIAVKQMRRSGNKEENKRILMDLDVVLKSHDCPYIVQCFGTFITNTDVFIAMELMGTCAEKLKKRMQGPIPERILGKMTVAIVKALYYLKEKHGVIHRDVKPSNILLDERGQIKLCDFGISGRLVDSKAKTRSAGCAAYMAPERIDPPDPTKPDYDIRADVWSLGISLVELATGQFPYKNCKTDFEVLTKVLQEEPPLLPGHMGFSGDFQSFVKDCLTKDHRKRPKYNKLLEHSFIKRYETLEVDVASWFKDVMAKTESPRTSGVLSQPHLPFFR
Nature of the assay: KINOMEscan competition binding assay, selectivity against off-target MKK7. The protocol:
as §1, §2, §3

In another assay the target is BRaf (Homo sapiens, UniProt P15056). As to the kind of experiment: KINOMEscan competition binding assay, selectivity against off-target BRaf. As for the experimental part: as §1, §3
Sequence of BRaf (P15056 whole entry): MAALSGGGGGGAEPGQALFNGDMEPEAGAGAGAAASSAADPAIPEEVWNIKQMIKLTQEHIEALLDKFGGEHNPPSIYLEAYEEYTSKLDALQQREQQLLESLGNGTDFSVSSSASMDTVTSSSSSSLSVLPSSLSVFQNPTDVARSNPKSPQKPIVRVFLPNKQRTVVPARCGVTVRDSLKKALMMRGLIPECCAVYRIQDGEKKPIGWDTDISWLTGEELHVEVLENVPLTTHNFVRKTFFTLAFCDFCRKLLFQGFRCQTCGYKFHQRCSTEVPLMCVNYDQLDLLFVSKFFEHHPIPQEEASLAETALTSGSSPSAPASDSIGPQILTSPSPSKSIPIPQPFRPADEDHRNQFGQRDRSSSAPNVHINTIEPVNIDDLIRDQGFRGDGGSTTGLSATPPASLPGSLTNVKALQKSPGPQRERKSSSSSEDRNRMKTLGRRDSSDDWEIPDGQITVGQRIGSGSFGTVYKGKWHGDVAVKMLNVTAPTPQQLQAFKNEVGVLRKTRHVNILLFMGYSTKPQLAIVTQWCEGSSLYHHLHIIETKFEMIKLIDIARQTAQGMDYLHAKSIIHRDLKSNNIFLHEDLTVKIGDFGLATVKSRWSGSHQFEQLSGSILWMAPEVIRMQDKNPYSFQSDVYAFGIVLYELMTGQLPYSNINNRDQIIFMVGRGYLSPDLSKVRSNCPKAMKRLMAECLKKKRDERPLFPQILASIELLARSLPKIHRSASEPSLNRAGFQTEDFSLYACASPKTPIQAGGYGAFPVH

T2 sequence (P45983 1-384 isoform P45983-2): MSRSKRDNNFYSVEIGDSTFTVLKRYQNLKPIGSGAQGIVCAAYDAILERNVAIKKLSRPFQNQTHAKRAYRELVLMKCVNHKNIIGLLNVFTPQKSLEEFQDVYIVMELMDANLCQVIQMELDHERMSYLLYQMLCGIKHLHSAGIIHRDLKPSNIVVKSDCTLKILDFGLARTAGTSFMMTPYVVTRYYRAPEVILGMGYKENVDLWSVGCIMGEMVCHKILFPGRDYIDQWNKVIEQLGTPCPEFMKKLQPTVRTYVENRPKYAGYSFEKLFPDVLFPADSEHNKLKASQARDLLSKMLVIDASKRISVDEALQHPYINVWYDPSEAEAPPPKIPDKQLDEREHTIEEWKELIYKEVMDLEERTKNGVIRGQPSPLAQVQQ

Turning to `CCCS(=O)(=O)Nc1ccc(F)c(C(=O)c2n[nH]c3ncc(-c4ccc(OC)cc4)cc23)c1F` [Example 6, N-(2,4-difluoro-3-(5-(4-methoxyphenyl)-1H-pyrazo-lo[3,4-b]pyridine-3-carbonyl)-phenyl)propane-1-sulfon-amide], on MKK4, the “MKK4, residual percent of control binding (PoC)” value (“MKK4, residual percent” for short) was “++ (1 ≤ PoC < 10)”. Besides, on JNK1, the “Selectivity vs. JNK1, ratio PoC(JNK1)/PoC(MKK4)” value is listed as “++ (30 > PoC(JNK1)/PoC(MKK4) ≥ 10)”. Moreover, the “Selectivity vs. MKK7, ratio PoC(MKK7)/PoC(MKK4)” value on MKK7 was “++ (30 > PoC(MKK7)/PoC(MKK4) ≥ 10)”. Besides, on BRaf, the “Selectivity vs. BRaf, ratio PoC(BRaf)/PoC(MKK4)” value was “O (PoC(BRaf)/PoC(MKK4) < 3)”.
The like results for `CCCS(=O)(=O)Nc1ccc(F)c(C(=O)c2n[nH]c3ncc(-c4cccc(Cl)c4)cc23)c1F` [Example 7, N-(3-(5-(3-chlorophenyl)-1H-pyrazolo[3,4-b]pyridine-3-carbonyl)-2,4-difluorophenyl)-propane-1-sulfonamide] were, in that order, “O (PoC ≥ 30)”, “O (PoC(JNK1)/PoC(MKK4) < 3)”, “O (PoC(MKK7)/PoC(MKK4) < 3)” and “O (PoC(BRaf)/PoC(MKK4) < 3)”.
`CCCS(=O)(=O)Nc1ccc(F)c(C(=O)c2n[nH]c3ncc(-c4ccc(C(C)(C)C)cc4)cc23)c1F` [Example 10, N-(3-(5-(4-tert-butylphenyl)-1H-pyrazolo[3,4-b]pyridine-3-carbonyl)-2,4-difluoro-phenyl)propane-1-sulfon-amide]: on MKK4, the “MKK4, residual percent” value was “O (PoC ≥ 30)”. The “Selectivity vs. JNK1, ratio PoC(JNK1)/PoC(MKK4)” value at JNK1 is listed as “O (PoC(JNK1)/PoC(MKK4) < 3)”. Besides, the “Selectivity vs. MKK7, ratio PoC(MKK7)/PoC(MKK4)” value on MKK7 is “O (PoC(MKK7)/PoC(MKK4) < 3)”. On BRaf, the “Selectivity vs. BRaf, ratio PoC(BRaf)/PoC(MKK4)” value is “O (PoC(BRaf)/PoC(MKK4) < 3)”.
For `CCCS(=O)(=O)Nc1ccc(F)c(C(=O)c2n[nH]c3ncc(-c4ccc(C(C)C)cc4)cc23)c1F` [Example 11, N-(2,4-difluoro-3-(5-(4-isopropylphenyl)-1H-pyrazo-lo[3,4-b]pyridine-3-carbonyl)phenyl)propane-1-sulfon-amide], the “MKK4, residual percent” value at MKK4 is “+ (10 ≤ PoC < 30)”. In addition, the “Selectivity vs. JNK1, ratio PoC(JNK1)/PoC(MKK4)” value at JNK1 was “+ (10 > PoC(JNK1)/PoC(MKK4) ≥ 3)”. At MKK7, the “Selectivity vs. MKK7, ratio PoC(MKK7)/PoC(MKK4)” value is on record as “+ (10 > PoC(MKK7)/PoC(MKK4) ≥ 3)”. For the same compound, the “Selectivity vs. BRaf, ratio PoC(BRaf)/PoC(MKK4)” value on BRaf was “+ (10 > PoC(BRaf)/PoC(MKK4) ≥ 3)”.
With `CCCS(=O)(=O)Nc1ccc(F)c(C(=O)c2n[nH]c3ncc(-c4ccc(C)c(C)c4)cc23)c1F` [Example 12, N-(3-(5-(3,4-dimethyl-phenyl)-1H-pyrazolo[3,4-b]pyridine-3-carbonyl)-2,4-difluorophenyl)-propane-1-sulfonamide], the “MKK4, residual percent” value on MKK4 is on record as “+ (10 ≤ PoC < 30)”. The “Selectivity vs. JNK1, ratio PoC(JNK1)/PoC(MKK4)” value on JNK1 was “+ (10 > PoC(JNK1)/PoC(MKK4) ≥ 3)”. The “Selectivity vs. MKK7, ratio PoC(MKK7)/PoC(MKK4)” value on MKK7 is “+ (10 > PoC(MKK7)/PoC(MKK4) ≥ 3)”. Also, the “Selectivity vs. BRaf, ratio PoC(BRaf)/PoC(MKK4)” value on BRaf is listed as “O (PoC(BRaf)/PoC(MKK4) < 3)”.
The like results for `CCCS(=O)(=O)Nc1ccc(F)c(C(=O)c2n[nH]c3ncc(-c4cccc(F)c4)cc23)c1F` [Example 16, N-(2,4-difluoro-3-(5-(3-fluorophenyl)-1H-pyrazo-lo[3,4-b]pyridine-3-carbonyl)-phenyl)propane-1-sulfon-amide] were, in that order, “++ (1 ≤ PoC < 10)”, “++ (30 > PoC(JNK1)/PoC(MKK4) ≥ 10)”, “++ (30 > PoC(MKK7)/PoC(MKK4) ≥ 10)” and “O (PoC(BRaf)/PoC(MKK4) < 3)”.
Turning to `CCCS(=O)(=O)Nc1ccc(F)c(C(=O)c2n[nH]c3ncc(-c4ccc(C)cc4)cc23)c1F` [Example 20, N-(2,4-difluoro-3-(5-p-tolyl-1H-pyrazolo[3,4-b]pyridine-3-carbonyl)phenyl)propane-1-sulfonamide], the “MKK4, residual percent” value at MKK4 is listed as “++ (1 ≤ PoC < 10)”. Besides, the “Selectivity vs. JNK1, ratio PoC(JNK1)/PoC(MKK4)” value at JNK1 was “++ (30 > PoC(JNK1)/PoC(MKK4) ≥ 10)”. Besides, on MKK7, the “Selectivity vs. MKK7, ratio PoC(MKK7)/PoC(MKK4)” value is “++ (30 > PoC(MKK7)/PoC(MKK4) ≥ 10)”. At BRaf, the “Selectivity vs. BRaf, ratio PoC(BRaf)/PoC(MKK4)” value is listed as “O (PoC(BRaf)/PoC(MKK4) < 3)”.
For `CCCS(=O)(=O)Nc1ccc(F)c(C(=O)c2n[nH]c3ncc(-c4cc(Cl)cc(Cl)c4)cc23)c1F` [Example 22, N-(3-(5-(3,5-dichloro-phenyl)-1H-pyrazolo[3,4-b]pyridine-3-carbonyl)-2,4-difluoro-phenyl)propane-1-sulfon-amide] the same measures were “O (PoC ≥ 30)”, “O (PoC(JNK1)/PoC(MKK4) < 3)”, “O (PoC(MKK7)/PoC(MKK4) < 3)” and “O (PoC(BRaf)/PoC(MKK4) < 3)”.
Turning to `CCCS(=O)(=O)Nc1ccc(F)c(C(=O)c2n[nH]c3ncc(-c4ccccc4N)cc23)c1F` [Example 26, N-(3-(5-(2-aminophenyl)-1H-pyrazolo[3,4-b]pyridine-3-carbonyl)-2,4-difluorophenyl)-propane-1-sulfonamide], the “MKK4, residual percent” value at MKK4 is reported as “+ (10 ≤ PoC < 30)”. Moreover, at JNK1, the “Selectivity vs. JNK1, ratio PoC(JNK1)/PoC(MKK4)” value was “+ (10 > PoC(JNK1)/PoC(MKK4) ≥ 3)”. At MKK7, the “Selectivity vs. MKK7, ratio PoC(MKK7)/PoC(MKK4)” value is listed as “+ (10 > PoC(MKK7)/PoC(MKK4) ≥ 3)”. For the same compound, at BRaf, the “Selectivity vs. BRaf, ratio PoC(BRaf)/PoC(MKK4)” value is given as “+ (10 > PoC(BRaf)/PoC(MKK4) ≥ 3)”.
Take `CCCS(=O)(=O)Nc1ccc(F)c(C(=O)c2n[nH]c3ncc(-c4cccc(N(C)C)c4)cc23)c1F` [Example 28, N-(3-(5-(3-(dimethyl-amino)phenyl)-1H-pyrazo-lo[3,4-b]pyridine-3-carbonyl)-2,4-difluoro-phenyl)propane-1-sulfonamide]: the “MKK4, residual percent” value at MKK4 was “+ (10 ≤ PoC < 30)”. The “Selectivity vs. JNK1, ratio PoC(JNK1)/PoC(MKK4)” value on JNK1 is listed as “+ (10 > PoC(JNK1)/PoC(MKK4) ≥ 3)”. In addition, the “Selectivity vs. MKK7, ratio PoC(MKK7)/PoC(MKK4)” value at MKK7 is on record as “+ (10 > PoC(MKK7)/PoC(MKK4) ≥ 3)”. Further, the “Selectivity vs. BRaf, ratio PoC(BRaf)/PoC(MKK4)” value on BRaf is “O (PoC(BRaf)/PoC(MKK4) < 3)”.
For `CCCS(=O)(=O)Nc1ccc(F)c(C(=O)c2n[nH]c3ncc(-c4cccc(C)c4)cc23)c1F` [Example 29, N-(2,4-difluoro-3-(5-m-tolyl-1H-pyrazolo[3,4-b]pyridine-3-carbonyl)phenyl)propane-1-sulfonamide] the same measures were “+ (10 ≤ PoC < 30)”, “+ (10 > PoC(JNK1)/PoC(MKK4) ≥ 3)”, “+ (10 > PoC(MKK7)/PoC(MKK4) ≥ 3)” and “O (PoC(BRaf)/PoC(MKK4) < 3)”.
As for `CCCS(=O)(=O)Nc1ccc(F)c(C(=O)c2n[nH]c3ncc(-c4cccc(C(F)(F)F)c4)cc23)c1F` [Example 30, N-(2,4-difluoro-3-(5-(3-(trifluoromethyl)phenyl)-1H-pyrazolo[3,4-b]pyridine-3-carbonyl)phenyl)propane-1-sulfonamide], at MKK4, the “MKK4, residual percent” value was “O (PoC ≥ 30)”. Also, the “Selectivity vs. JNK1, ratio PoC(JNK1)/PoC(MKK4)” value at JNK1 was “O (PoC(JNK1)/PoC(MKK4) < 3)”. For the same compound, on MKK7, the “Selectivity vs. MKK7, ratio PoC(MKK7)/PoC(MKK4)” value is reported as “O (PoC(MKK7)/PoC(MKK4) < 3)”. Also, the “Selectivity vs. BRaf, ratio PoC(BRaf)/PoC(MKK4)” value at BRaf is “O (PoC(BRaf)/PoC(MKK4) < 3)”.
Turning to `CCCS(=O)(=O)Nc1ccc(F)c(C(=O)c2n[nH]c3ncc(-c4ccc(Cl)c(Cl)c4)cc23)c1F` [Example 33, N-(3-(5-(3,4-dichloro-phenyl)-1H-pyrazolo[3,4-b]pyridine-3-carbonyl)-2,4-difluoro-phenyl)-propane-1-sulfon-amide], the “MKK4, residual percent” value on MKK4 is given as “O (PoC ≥ 30)”. Also, at JNK1, the “Selectivity vs. JNK1, ratio PoC(JNK1)/PoC(MKK4)” value is given as “O (PoC(JNK1)/PoC(MKK4) < 3)”. For the same compound, the “Selectivity vs. MKK7, ratio PoC(MKK7)/PoC(MKK4)” value at MKK7 is on record as “O (PoC(MKK7)/PoC(MKK4) < 3)”. Besides, the “Selectivity vs. BRaf, ratio PoC(BRaf)/PoC(MKK4)” value on BRaf is on record as “O (PoC(BRaf)/PoC(MKK4) < 3)”.
